Laboratory results from ChEMBL document CHEMBL4251646, “Improved antibacterial activity of a marine peptide-N2 against intracellular Salmonella typhimurium by conjugating with cell-penetrating peptides-bLFcin6/Tat11” (Eur J Med Chem, 2018).
Values after ≈ are worked out from the molar mass of the structure shown. Blank lines part the entries; values can stand above or below the compound they belong to. Active and inactive are the calls of the source. The rule behind the calls is not given here.

Legend:
Salmonella typhimurium [1] = assay: Bactericidal activity against Salmonella typhimurium ATCC 14028 at 1 to 2 times MIC after 2 hrs by time-kill assay; assay type: functional, organism-based; conditions: Salmonella enterica subsp. enterica serovar Typhimurium
Salmonella typhimurium [2] = assay: Bactericidal activity against Salmonella typhimurium ATCC 14028 at 0.125 to 1 times MIC after 24 hrs by dose-kill assay; assay type: functional, organism-based; conditions: Salmonella enterica subsp. enterica serovar Typhimurium
Salmonella typhimurium [3] = assay: Bactericidal activity against Salmonella typhimurium ATCC 14028 at MIC up to 6 hrs by time-kill assay; assay type: functional, organism-based; conditions: Salmonella enterica subsp. enterica serovar Typhimurium
Salmonella typhimurium [4] = assay: Bactericidal activity against Salmonella typhimurium ATCC 14028 at 10 uM up to 9 hrs; assay type: functional, organism-based; conditions: Salmonella enterica subsp. enterica serovar Typhimurium
[5] = Drug uptake in mouse RAW264.7 cells at 0.5 uM using FITC-labeled test compound at 4 degC after 2 hrs by flow cytometry; assay type: ADME, cell-based; conditions: raw264.7, 2 h
[6] = Cytotoxicity against mouse RAW264.7 cells assessed as cell survival at 100 uM after 8 hrs by MTT assay; assay type: cell-based; conditions: read-out: Survival
[7] = Drug uptake in cytosol of mouse RAW264.7 cells at 5 uM using FITC-labeled test compound after 5 hrs by Hoechst 33342/FM 4-64 staining-based confocal microscopic analysis; assay type: ADME, subcellular
[8] = Drug internalization in mouse RAW264.7 cells at 1 uM using FITC-labeled test compound after 0.5 hrs by flow cytometry; assay type: ADME, cell-based; conditions: raw264.7, 0.5 h
[9] = Drug internalization in mouse RAW264.7 cells at 1 uM using FITC-labeled test compound after 2 hrs by flow cytometry; assay type: ADME, cell-based; conditions: raw264.7, 2 h
[10] = Drug internalization in mouse RAW264.7 cells using FITC-labeled test compound by flow cytometry; assay type: ADME, cell-based
[11] = Drug uptake in mouse RAW264.7 cells at 2 uM using FITC-labeled test compound at 4 degC after 2 hrs in presence of macropinocytosis inhibitor amiloride by trypan blue staining-based flow cytometry; assay type: ADME, cell-based; conditions: raw264.7, 2 h
[12] = Drug uptake in mouse RAW264.7 cells at 2 uM using FITC-labeled test compound after 2 hrs at 4 degC in presence of microtubule polymerization inhibitor nocodazole by trypan blue staining-based flow cytometry; assay type: ADME, cell-based; conditions: raw264.7, 2 h
[13] = Drug uptake in mouse RAW264.7 cells at 2 uM using FITC-labeled test compound at 4 degC after 2 hrs in presence of clathrin-mediated endocytosis inhibitor chlorpromazine by trypan blue staining-based flow cytometry; assay type: ADME, cell-based; conditions: raw264.7, 2 h
[14] = Drug uptake in mouse RAW264.7 cells at 2 uM using FITC-labeled test compound at 4 degC after 2 hrs in presence of lipid raft disruptor MbetaCD by trypan blue staining-based flow cytometry; assay type: ADME, cell-based; conditions: raw264.7, 2 h
[15] = Drug uptake in mouse RAW264.7 cells at 5 uM using FITC-labeled test compound after 0.5 hrs by flow cytometry; assay type: ADME, cell-based; conditions: raw264.7, 0.5 h
[16] = Drug uptake in mouse RAW264.7 cells at 5 uM using FITC-labeled test compound after 2 hrs by flow cytometry; assay type: ADME, cell-based; conditions: raw264.7, 2 h
Salmonella typhimurium [17] = assay: Antibacterial activity against Salmonella typhimurium ATCC 14028 at pH 7 after 16 to 18 hrs by broth microdilution method; assay type: functional, Salmonella enterica subsp. enterica serovar Typhimurium; conditions: Salmonella enterica
Salmonella typhimurium [18] = assay: Antibacterial activity against Salmonella typhimurium ATCC 14028 assessed as survival at 10 uM after 3 hrs by broth microdilution method; assay type: functional, Salmonella enterica subsp. enterica serovar Typhimurium
Salmonella typhimurium [19] = assay: Bactericidal activity against Salmonella typhimurium ATCC 14028 at 10 uM within 3 to 9 hrs; assay type: functional, Salmonella enterica subsp. enterica serovar Typhimurium
Salmonella typhimurium [20] = assay: Bactericidal activity against Salmonella typhimurium ATCC 14028 infected in mouse RAW264.7 cells assessed as log reduction in intracellular bacterial load at 10 uM after 10 hrs in presence of gentamycin; assay type: functional, Salmonella enterica subsp. enterica serovar Typhimurium
Salmonella typhimurium [21] = assay: Bactericidal activity against Salmonella typhimurium ATCC 14028 infected in mouse RAW264.7 cells assessed as log reduction in intracellular bacterial load at 5 uM after 10 hrs in presence of gentamycin; assay type: functional, Salmonella enterica subsp. enterica serovar Typhimurium
Salmonella typhimurium [22] = assay: Bactericidal activity against Salmonella typhimurium ATCC 14028 at 0.03125 to 4 times MIC after 24 hrs by dose-kill assay; assay type: functional, organism-based; conditions: Salmonella enterica subsp. enterica serovar Typhimurium
Salmonella typhimurium [23] = assay: Antibacterial activity against Salmonella typhimurium ATCC 14028 at pH 5 after 16 to 18 hrs by broth microdilution method; assay type: functional, Salmonella enterica subsp. enterica serovar Typhimurium; conditions: Salmonella enterica

Compound: CC(C)[C@@H]1NC(=O)[C@H](C)NC(=O)[C@H](CC(N)=O)NC(=O)[C@H](CCCNC(=N)N)NC(=O)[C@H](Cc2ccc(O)cc2)NC(=O)[C@H](C(C)C)NC(=O)[C@@H]2CSSC[C@@H](NC(=O)[C@H](C(C)C)NC(=O)[C@@H](CCCNC(=N)N)NC1=O)C(=O)N[C@@H](Cc1cnc[nH]1)C(=O)N[C@H](CCCNC(=N)N)C(=O)N[C@@H](CCCNC(=N)N)C(=O)N[C@@H](C(=O)N[C@@H](CC(N)=O)C(=O)O)CSSC[C@H](NC(=O)[C@H](Cc1ccccc1)NC(=O)[C@H](C)NC(=O)[C@H](CCCNC(=N)N)NC(=O)[C@H](CCCNC(=N)N)NC(=O)[C@H](CCCNC(=N)N)NC(=O)[C@H](CCC(N)=O)NC(=O)[C@H](CCCNC(=N)N)NC(=O)[C@H](CCCNC(=N)N)NC(=O)[C@H](CCCCN)NC(=O)[C@H](CCCCN)NC(=O)[C@H](CCCNC(=N)N)NC(=O)CNC(=O)[C@@H](N)Cc1ccc(O)cc1)C(=O)N[C@@H](Cc1c[nH]c3ccccc13)C(=O)N[C@H](CC(N)=O)C(=O)N[C@@H](C(C)C)C(=O)N2
- Activity (Salmonella typhimurium [1]): Active
- Activity (Salmonella typhimurium [2]): Active
- Activity (Salmonella typhimurium [3]): Active
- Activity (Salmonella typhimurium [4]): inactive

Compound: CC(C)[C@@H]1NC(=O)[C@H](C)NC(=O)[C@H](CC(N)=O)NC(=O)[C@H](CCCNC(=N)N)NC(=O)[C@H](Cc2ccc(O)cc2)NC(=O)[C@H](C(C)C)NC(=O)[C@@H]2CSSC[C@H](NC(=O)[C@H](C(C)C)NC(=O)[C@H](CCCNC(=N)N)NC1=O)C(=O)N[C@@H](Cc1cnc[nH]1)C(=O)N[C@@H](CCCNC(=N)N)C(=O)N[C@@H](CCCNC(=N)N)C(=O)N[C@H](C(=O)N[C@@H](CC(N)=O)C(=O)O)CSSC[C@H](NC(=O)[C@H](Cc1ccccc1)NC(=O)[C@H](C)NC(=O)[C@H](CCCNC(=N)N)NC(=O)[C@H](Cc1c[nH]c3ccccc13)NC(=O)[C@H](CCC(N)=O)NC(=O)[C@H](Cc1c[nH]c3ccccc13)NC(=O)[C@H](CCCNC(=N)N)NC(=O)[C@@H](N)CCCNC(=N)N)C(=O)N[C@@H](Cc1c[nH]c3ccccc13)C(=O)N[C@@H](CC(N)=O)C(=O)N[C@@H](C(C)C)C(=O)N2
- Drug uptake [5]: 17.9%
- viability at 8 h, 100 µM [6]: 86.5%
- Drug uptake [7]: Active
- Drug uptake [8]: 28.3%
- Drug uptake [9]: 57.2%
- Drug uptake [10]: Dose-dependent effect and Tde
- Drug uptake [11]: Not Active
- Drug uptake [12]: Not Active
- Drug uptake [13]: Not Active
- Drug uptake [14]: Not Active
- Drug uptake [15]: 70.9%
- Drug uptake [16]: 96.3%

Compound: CC(C)[C@@H]1NC(=O)[C@H](C)NC(=O)[C@H](CC(N)=O)NC(=O)[C@H](CCCNC(=N)N)NC(=O)[C@H](Cc2ccc(O)cc2)NC(=O)[C@H](C(C)C)NC(=O)[C@@H]2CSSC[C@H](NC(=O)[C@H](C(C)C)NC(=O)[C@H](CCCNC(=N)N)NC1=O)C(=O)N[C@@H](Cc1cnc[nH]1)C(=O)N[C@@H](CCCNC(=N)N)C(=O)N[C@@H](CCCNC(=N)N)C(=O)N[C@H](C(=O)N[C@@H](CC(N)=O)C(=O)O)CSSC[C@H](NC(=O)[C@H](Cc1ccccc1)NC(=O)[C@H](C)NC(=O)[C@H](CCCNC(=N)N)NC(=O)[C@H](CCCNC(=N)N)NC(=O)[C@H](CCCNC(=N)N)NC(=O)[C@H](CCC(N)=O)NC(=O)[C@H](CCCNC(=N)N)NC(=O)[C@H](CCCNC(=N)N)NC(=O)[C@H](CCCCN)NC(=O)[C@H](CCCCN)NC(=O)[C@H](CCCNC(=N)N)NC(=O)CNC(=O)[C@@H](N)Cc1ccc(O)cc1)C(=O)N[C@@H](Cc1c[nH]c3ccccc13)C(=O)N[C@@H](CC(N)=O)C(=O)N[C@@H](C(C)C)C(=O)N2
- Drug uptake [5]: 8.3%
- viability at 8 h, 100 µM [6]: 90.2%
- Drug uptake [7]: Active
- Drug uptake [8]: 93.5%
- Drug uptake [9]: 99.8%
- Drug uptake [10]: Dose-dependent effect and Tde
- Drug uptake [11]: Not Active
- Drug uptake [12]: Not Active
- Drug uptake [13]: Not Active
- Drug uptake [14]: Not Active
- Drug uptake [15]: 99.9%
- Drug uptake [16]: 99.9%

Compound: CC(C)[C@@H]1NC(=O)[C@H](C)NC(=O)[C@H](CC(N)=O)NC(=O)[C@H](CCCNC(=N)N)NC(=O)[C@H](Cc2ccc(O)cc2)NC(=O)[C@H](C(C)C)NC(=O)[C@@H]2CSSC[C@H](NC(=O)[C@H](C(C)C)NC(=O)[C@H](CCCNC(=N)N)NC1=O)C(=O)N[C@@H](Cc1cnc[nH]1)C(=O)N[C@@H](CCCNC(=N)N)C(=O)N[C@@H](CCCNC(=N)N)C(=O)N[C@@H](C(=O)N[C@@H](CC(N)=O)C(=O)O)CSSC[C@H](NC(=O)[C@H](Cc1ccccc1)NC(=O)[C@H](C)N)C(=O)N[C@@H](Cc1c[nH]c3ccccc13)C(=O)N[C@@H](CC(N)=O)C(=O)N[C@@H](C(C)C)C(=O)N2
- Activity (Salmonella typhimurium [2]): Active
- Activity (Salmonella typhimurium [4]): inactive

Compound: O=C(O)c1cn(C2CC2)c2cc(N3CCNCC3)c(F)cc2c1=O [CIPROFLOXACIN]
- MIC (Salmonella typhimurium [17]): 0.05 µM (≈ 0.0166 µg/mL)
- Survival (Salmonella typhimurium [18]): 5.5 ×10³ CFU/ml
- Activity (Salmonella typhimurium [19]): 98.11 - 99.99%
- log(activity) (Salmonella typhimurium [20]): 3.26
- log(activity) (Salmonella typhimurium [21]): 2.67
- Activity (Salmonella typhimurium [22]): Active

Compound: CC(C)[C@@H]1NC(=O)[C@H](C)NC(=O)[C@H](CC(N)=O)NC(=O)[C@H](CCCNC(=N)N)NC(=O)[C@H](Cc2ccc(O)cc2)NC(=O)[C@H](C(C)C)NC(=O)[C@@H]2CSSC[C@H](NC(=O)[C@H](C(C)C)NC(=O)[C@H](CCCNC(=N)N)NC1=O)C(=O)N[C@@H](Cc1cnc[nH]1)C(=O)N[C@@H](CCCNC(=N)N)C(=O)N[C@@H](CCCNC(=N)N)C(=O)N[C@H](C(=O)N[C@@H](CC(N)=O)C(=O)O)CSSC[C@H](NC(=O)[C@H](Cc1ccccc1)NC(=O)[C@H](C)N)C(=O)N[C@@H](Cc1c[nH]c3ccccc13)C(=O)N[C@@H](CC(N)=O)C(=O)N[C@@H](C(C)C)C(=O)N2
- MIC (Salmonella typhimurium [17]): 0.78 µM (≈ 2 µg/mL)
- MIC (Salmonella typhimurium [23]): 25 µM (≈ 64.2 µg/mL)
- Survival (Salmonella typhimurium [18]): 2.3 ×10⁵ CFU/ml
- Activity (Salmonella typhimurium [19]): 22.41 - 69.74%

Compound: CC(C)[C@@H]1NC(=O)[C@H](C)NC(=O)[C@H](CC(N)=O)NC(=O)[C@H](CCCNC(=N)N)NC(=O)[C@H](Cc2ccc(O)cc2)NC(=O)[C@H](C(C)C)NC(=O)[C@@H]2CSSC[C@@H](NC(=O)[C@H](C(C)C)NC(=O)[C@H](CCCNC(=N)N)NC1=O)C(=O)N[C@@H](Cc1cnc[nH]1)C(=O)N[C@@H](CCCNC(=N)N)C(=O)N[C@@H](CCCNC(=N)N)C(=O)N[C@H](C(=O)N[C@@H](CC(N)=O)C(=O)O)CSSC[C@H](NC(=O)[C@H](Cc1ccccc1)NC(=O)[C@H](C)NC(=O)[C@H](CCCNC(=N)N)NC(=O)[C@H](Cc1c[nH]c3ccccc13)NC(=O)[C@H](CCC(N)=O)NC(=O)[C@H](Cc1c[nH]c3ccccc13)NC(=O)[C@H](CCCNC(=N)N)NC(=O)[C@@H](N)CCCNC(=N)N)C(=O)N[C@@H](Cc1c[nH]c3ccccc13)C(=O)N[C@@H](CC(N)=O)C(=O)N[C@@H](C(C)C)C(=O)N2
- Activity (Salmonella typhimurium [1]): Active
- Activity (Salmonella typhimurium [2]): Active
- Activity (Salmonella typhimurium [4]): inactive

- MIC (Salmonella typhimurium [17]): > 80 µM
Compound: H-RRWQWR-OH

Compound: N=C(N)NCCC[C@H](NC(=O)[C@H](CCCNC(=N)N)NC(=O)[C@H](CCCNC(=N)N)NC(=O)[C@H](CCC(N)=O)NC(=O)[C@H](CCCNC(=N)N)NC(=O)[C@H](CCCNC(=N)N)NC(=O)[C@H](CCCCN)NC(=O)[C@H](CCCCN)NC(=O)[C@H](CCCNC(=N)N)NC(=O)CNC(=O)[C@@H](N)Cc1ccc(O)cc1)C(=O)O
- MIC (Salmonella typhimurium [17]): > 80 µM
